# Assay results reported in ChEMBL document CHEMBL1201861, “Genomics of Drug Sensitity in Cancer screening data, Wellcome Trust Sanger Institute”.
# How the values were obtained:
# Type in all cases: functional, cell-based
# [1] = system: COR-L105; experiment: cells; conditions: Homo sapiens
# Description: SANGER: Inhibition of human COR-L105 cell growth in a cell viability assay.
# [2] = system: CP50-MEL-B; experiment: cells; conditions: Homo sapiens;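 note: growth inhibition of the human cell line, measured with a cell viability read-out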
# Description: SANGER: Inhibition of human CP50-MEL-B cell growth in a cell viability assay.
# [3] = system: DBTRG-05MG; experiment: cells; conditions: Homo sapiens;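 note: cell viability assay measuring growth inhibition of human DBTRG-05MG cells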
# Description: SANGER: Inhibition of human DBTRG-05MG cell growth in a cell viability assay.
# [4] = system: DMS-273; experiment: cells; conditions: Homo sapiens
# Description: SANGER: Inhibition of human DMS-273 cell growth in a cell viability assay.
# [5] = system: DOK; experiment: cells; conditions: Homo sapiens;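 note: cell viability assay read-out, values reflect inhibition of cell growth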
# Description: SANGER: Inhibition of human DOK cell growth in a cell viability assay.
# [6] = system: EHEB; experiment: cells; conditions: Homo sapiens;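 note: growth inhibition of human EHEB cells, read out with a cell viability assay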
# Description: SANGER: Inhibition of human EHEB cell growth in a cell viability assay.
# [7] = system: FTC-133; experiment: cells; conditions: Homo sapiens
# [8] = system: G-361; experiment: cells; conditions: Homo sapiens
# [9] = system: HCC1395; experiment: cells; conditions: Homo sapiens;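 note: growth inhibition of HCC1395 cells, read out by a cell viability assay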
# Description: SANGER: Inhibition of human HCC1395 cell growth in a cell viability assay.
# [10] = system: Hs-578T; experiment: cells; conditions: Homo sapiens
# Description: SANGER: Inhibition of human Hs-578-T cell growth in a cell viability assay.
# [11] = system: KYSE-140; experiment: cells; conditions: Homo sapiens;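 note: cell viability assay measuring growth inhibition in human KYSE-140 cells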
# Description: SANGER: Inhibition of human KYSE-140 cell growth in a cell viability assay.
# [12] = system: LN-405; experiment: cells; conditions: Homo sapiens
# Description: SANGER: Inhibition of human LN-405 cell growth in a cell viability assay.
# [13] = system: LU-99A; experiment: cells; conditions: Homo sapiens;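 note: growth inhibition of LU-99A cells, read out with a cell viability assay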
# Description: SANGER: Inhibition of human LU-99A cell growth in a cell viability assay.
# [14] = system: MDA-MB-453; experiment: cells; conditions: Homo sapiens
# Description: SANGER: Inhibition of human MDA-MB-453 cell growth in a cell viability assay.
# [15] = system: MHH-CALL-2; experiment: cells; conditions: Homo sapiens;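 note: growth inhibition of the cell line, read out in a cell viability assay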
# Description: SANGER: Inhibition of human MHH-CALL-2 cell growth in a cell viability assay.
# [16] = system: MHH-ES-1; experiment: cells; conditions: Homo sapiens
# Description: SANGER: Inhibition of human MHH-ES-1 cell growth in a cell viability assay.
# [17] = system: MKN-28; experiment: cells; conditions: Homo sapiens;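 note: cell viability assay read-out, IC50 reflects suppression of growth of human MKN-28 cells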
# Description: SANGER: Inhibition of human MKN28 cell growth in a cell viability assay.
# [18] = system: MKN-7; experiment: cells; conditions: Homo sapiens;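 note: growth inhibition of MKN-7 cells, read out with a cell viability assay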
# Description: SANGER: Inhibition of human MKN7 cell growth in a cell viability assay.
# [19] = system: MRK-nu-1; experiment: cells; conditions: Homo sapiens;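 note: cell viability assay measuring growth suppression of human MRK-nu-1 cells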
# Description: SANGER: Inhibition of human MRK-nu-1 cell growth in a cell viability assay.
# [20] = system: NCCIT; experiment: SANGER: Inhibition of human NCCIT cell growth in a cell viability assay.
# [21] = system: NCI-H1436; experiment: cells; conditions: Homo sapiens;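 note: growth suppression of human NCI-H1436 cells, determined with a cell viability readout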
# Description: SANGER: Inhibition of human NCI-H1436 cell growth in a cell viability assay.
# [22] = system: NCI-H1573; experiment: cells; conditions: Homo sapiens;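 note: growth inhibition of NCI-H1573 cells, read out with a cell viability assay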
# Description: SANGER: Inhibition of human NCI-H1573 cell growth in a cell viability assay.
# [23] = system: NCI-H1651; experiment: cells; conditions: Homo sapiens;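 note: Read-out is a cell viability assay, with IC50 expressing inhibition of NCI-H1651 cell growth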
# Description: SANGER: Inhibition of human NCI-H1651 cell growth in a cell viability assay.
# [24] = system: NCI-H1694; experiment: cells; conditions: Homo sapiens;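 note: cell viability assay measuring inhibition of growth in human NCI-H1694 cells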
# Description: SANGER: Inhibition of human NCI-H1694 cell growth in a cell viability assay.
# [25] = system: NCI-H187; experiment: cells; conditions: Homo sapiens;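 note: growth inhibition of NCI-H187 cells, read out as cell viability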
# Description: SANGER: Inhibition of human NCI-H187 cell growth in a cell viability assay.
# [26] = system: NCI-H1993; experiment: cells; conditions: Homo sapiens;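 note: growth inhibition of the cancer cell line, assessed with a cell viability assay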
# Description: SANGER: Inhibition of human NCI-H1993 cell growth in a cell viability assay.
# [27] = system: NCI-H2030; experiment: cells; conditions: Homo sapiens;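 note: growth inhibition of human NCI-H2030 cells, read out by a cell viability assay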
# Description: SANGER: Inhibition of human NCI-H2030 cell growth in a cell viability assay.
# [28] = system: NCI-H2342; experiment: cells; conditions: Homo sapiens;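 note: growth inhibition of the cancer cell line, determined with a cell viability assay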
# Description: SANGER: Inhibition of human NCI-H2342 cell growth in a cell viability assay.
# [29] = system: NCI-H520; experiment: cells; conditions: Homo sapiens;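 note: growth inhibition of NCI-H520 cells, measured by a cell viability assay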
# Description: SANGER: Inhibition of human NCI-H520 cell growth in a cell viability assay.
# [30] = system: NCI-H524; experiment: cells; conditions: Homo sapiens;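 note: growth inhibition of human NCI-H524 cells, read out through a cell viability assay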
# Description: SANGER: Inhibition of human NCI-H524 cell growth in a cell viability assay.
# [31] = system: NCI-H661; experiment: cells; conditions: Homo sapiens;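 note: cell viability assay read-out, IC50 being the concentration that inhibits growth of the cells by half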
# Description: SANGER: Inhibition of human NCI-H661 cell growth in a cell viability assay.
# [32] = system: NCI-H716; experiment: cells; conditions: Homo sapiens;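 note: growth inhibition of human NCI-H716 cells, measured by a cell viability assay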
# Description: SANGER: Inhibition of human NCI-H716 cell growth in a cell viability assay.
# [33] = system: NUGC-3; experiment: cells; conditions: Homo sapiens;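 note: growth inhibition of human NUGC-3 cells, read out with a cell viability assay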
# Description: SANGER: Inhibition of human NUGC-3 cell growth in a cell viability assay.
# [34] = system: OE33; experiment: cells; conditions: Homo sapiens;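 note: growth inhibition of human OE33 cells, measured by a cell viability assay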
# Description: SANGER: Inhibition of human OE33 cell growth in a cell viability assay.
# [35] = system: Panc1005; experiment: cells; conditions: Homo sapiens;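 note: growth inhibition of human PANC-10-05 cells, measured by a cell viability assay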
# Description: SANGER: Inhibition of human PANC-10-05 cell growth in a cell viability assay.
# [36] = system: REH; experiment: cells; conditions: Homo sapiens;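 note: growth inhibition of REH cells determined with a cell viability read-out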
# Description: SANGER: Inhibition of human REH cell growth in a cell viability assay.
# [37] = system: RL; experiment: cells; conditions: Homo sapiens
# Description: SANGER: Inhibition of human RL cell growth in a cell viability assay.
# [38] = system: Raji; experiment: cells; conditions: Homo sapiens;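 note: cell viability assay measuring inhibition of Raji cell growth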
# Description: SANGER: Inhibition of human Raji cell growth in a cell viability assay.
# [39] = system: SBC-5; experiment: cells; conditions: Homo sapiens;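 note: cell viability assay read-out, IC50 is the concentration that inhibits growth of the cells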
# Description: SANGER: Inhibition of human SBC-5 cell growth in a cell viability assay.
# [40] = system: SK-MEL-28; experiment: cells; conditions: Homo sapiens;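 note: growth inhibition of human SK-MEL-28 cells, read out with a cell viability assay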
# Description: SANGER: Inhibition of human SK-MEL-28 cell growth in a cell viability assay.
# [41] = system: SK-MM-2; experiment: cells; conditions: Homo sapiens;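 note: growth inhibition of human SK-MM-2 cells, read out with a cell viability assay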
# Description: SANGER: Inhibition of human SK-MM-2 cell growth in a cell viability assay.
# [42] = system: SKG-IIIa; experiment: cells; conditions: Homo sapiens;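 note: cell growth inhibition, read out with a cell viability assay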
# Description: SANGER: Inhibition of human SKG-IIIa cell growth in a cell viability assay.
# [43] = system: SU-DHL-1; experiment: SANGER: Inhibition of human SU-DHL-1 cell growth in a cell viability assay.
# [44] = system: SUP-T1; experiment: cells; conditions: Homo sapiens;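 note: growth inhibition of human SUP-T1 cells, read out as cell viability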
# Description: SANGER: Inhibition of human SUP-T1 cell growth in a cell viability assay.
# [45] = system: SW626; experiment: cells; conditions: Homo sapiens;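 note: growth inhibition of SW626 cells, measured with a cell viability assay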
# Description: SANGER: Inhibition of human SW626 cell growth in a cell viability assay.
# [46] = system: SW837; experiment: cells; conditions: Homo sapiens;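 note: growth inhibition of SW837 cells, determined with a cell viability assay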
# Description: SANGER: Inhibition of human SW837 cell growth in a cell viability assay.
# [47] = system: T-24; experiment: cells; conditions: Homo sapiens;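 note: growth inhibition of T-24 cells, read out with a cell viability assay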
# Description: SANGER: Inhibition of human T-24 cell growth in a cell viability assay.
# [48] = system: T98G; experiment: cells; conditions: Homo sapiens;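 note: growth inhibition of T98G cells, read out by a cell viability assay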
# Description: SANGER: Inhibition of human T98G cell growth in a cell viability assay.
# [49] = system: 786-0; experiment: cells; conditions: Homo sapiens
# Description: SANGER: Inhibition of human 786-0 cell growth in a cell viability assay.
# [50] = system: 8505C; experiment: cells; conditions: Homo sapiens
# Description: SANGER: Inhibition of human 8505C cell growth in a cell viability assay.
# [51] = system: A-375; experiment: cells; conditions: Homo sapiens;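 note: growth inhibition of A375 cells, read out with a cell viability assay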
# Description: SANGER: Inhibition of human A375 cell growth in a cell viability assay.
# [52] = system: A-427; experiment: cells; conditions: Homo sapiens;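 note: growth inhibition of human A-427 cells, read out by a cell viability assay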
# Description: SANGER: Inhibition of human A427 cell growth in a cell viability assay.
# [53] = system: A-431; experiment: cells; conditions: Homo sapiens;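 note: growth inhibition of A-431 cells, determined with a cell viability read-out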
# Description: SANGER: Inhibition of human A431 cell growth in a cell viability assay.
# [54] = system: A673; experiment: cells; conditions: Homo sapiens;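 note: growth inhibition of human A673 cells, read out through a cell viability assay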
# Description: SANGER: Inhibition of human A673 cell growth in a cell viability assay.
# [55] = system: BC-3; experiment: cells; conditions: Homo sapiens;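 note: cell viability assay measuring growth inhibition of human BC-3 cells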
# Description: SANGER: Inhibition of human BC-3 cell growth in a cell viability assay.
# [56] = system: BHT-101; experiment: cells; conditions: Homo sapiens
# Description: SANGER: Inhibition of human BHT-101 cell growth in a cell viability assay.
# [57] = system: BHY; experiment: cells; conditions: Homo sapiens;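 note: cell growth inhibition read out by a viability assay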
# Description: SANGER: Inhibition of human BHY cell growth in a cell viability assay.
# [58] = system: BL-41; experiment: cells; conditions: Homo sapiens;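 note: growth inhibition of human BL-41 cells, read out with a cell viability assay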
# Description: SANGER: Inhibition of human BL-41 cell growth in a cell viability assay.
# [59] = system: CAL-33; experiment: cells; conditions: Homo sapiens;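 note: growth inhibition of CAL-33 cells, read out with a cell viability assay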
# Description: SANGER: Inhibition of human CAL-33 cell growth in a cell viability assay.
# [60] = system: CAL-54; experiment: cells; conditions: Homo sapiens;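 note: growth inhibition of CAL-54 cells, read out by a viability measurement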
# Description: SANGER: Inhibition of human CAL-54 cell growth in a cell viability assay.
# [61] = system: TUR; experiment: cells; conditions: Homo sapiens;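 note: growth inhibition of human TUR cells, read out with a cell viability assay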
# Description: SANGER: Inhibition of human TUR cell growth in a cell viability assay.
# [62] = system: WM-115; experiment: cells; conditions: Homo sapiens
# Description: SANGER: Inhibition of human WM-115 cell growth in a cell viability assay.
# [63] = system: YT; experiment: cells; conditions: Homo sapiens
# Description: SANGER: Inhibition of human YT cell growth in a cell viability assay.
# [64] = system: CHL-1; experiment: cells; conditions: Homo sapiens;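 note: cell growth inhibition, read out with a cell viability assay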
# Description: SANGER: Inhibition of human CHL-1 cell growth in a cell viability assay.
# [65] = system: CHP-126; experiment: cells; conditions: Homo sapiens
# Description: SANGER: Inhibition of human CHP-126 cell growth in a cell viability assay.
structure (smiles),measurement,setting,value
CCNC(=O)c1noc(-c2cc(C(C)C)c(O)cc2O)c1-c1ccc(CN2CCOCC2)cc1 [LUMINESPIB],IC50,[1],19.1 nM
same,IC50,[2],83.7 nM
same,IC50,[3],29.6 nM
same,IC50,[4],34.8 nM
same,IC50,[5],> 256 nM
same,IC50,[6],25.6 nM
same,IC50,[7],> 256 nM
same,IC50,[8],26.8 nM
same,IC50,[9],> 256 nM
same,IC50,[10],> 256 nM
same,IC50,[11],20.2 nM
same,IC50,[12],> 256 nM
same,IC50,[13],72.9 nM
same,IC50,[14],> 256 nM
same,IC50,[15],> 256 nM
same,IC50,[16],12.6 nM
same,IC50,[17],30.1 nM
same,IC50,[18],> 256 nM
same,IC50,[19],23 nM
same,IC50,[20],66 nM
same,IC50,[21],218 nM
same,IC50,[22],177 nM
same,IC50,[23],24.3 nM
same,IC50,[24],> 256 nM
same,IC50,[25],> 256 nM
same,IC50,[26],> 256 nM
same,IC50,[27],17 nM
same,IC50,[28],17.6 nM
same,IC50,[29],26.6 nM
same,IC50,[30],> 256 nM
same,IC50,[31],112 nM
same,IC50,[32],> 256 nM
same,IC50,[33],48.3 nM
same,IC50,[34],42.4 nM
same,IC50,[35],17.5 nM
same,IC50,[36],20.6 nM
same,IC50,[37],> 256 nM
same,IC50,[38],> 256 nM
same,IC50,[39],91.9 nM
same,IC50,[40],> 256 nM
same,IC50,[41],111 nM
same,IC50,[42],178 nM
same,IC50,[43],69.2 nM
same,IC50,[44],67.6 nM
same,IC50,[45],21.2 nM
same,IC50,[46],30.1 nM
same,IC50,[47],53.8 nM
same,IC50,[48],74.2 nM
same,IC50,[49],6.63 nM
same,IC50,[50],8.21 nM
same,IC50,[51],21.7 nM
same,IC50,[52],13 nM
same,IC50,[53],6.07 nM
same,IC50,[54],104 nM
same,IC50,[55],30.2 nM
same,IC50,[56],58.8 nM
same,IC50,[57],19.1 nM
same,IC50,[58],56 nM
same,IC50,[59],43.8 nM
same,IC50,[60],> 256 nM
same,IC50,[61],77.3 nM
same,IC50,[62],> 256 nM
same,IC50,[63],11.8 nM
same,IC50,[64],41.7 nM
same,IC50,[65],75.7 nM
CO[C@@]12[C@H](COC(N)=O)C3=C(C(=O)C(C)=C(N)C3=O)N1C[C@@H]1N[C@@H]12 [MITOMYCIN],IC50,[1],1610 nM
same,IC50,[2],780 nM
same,IC50,[3],570 nM
same,IC50,[4],161 nM
same,IC50,[5],5160 nM
same,IC50,[6],672 nM
same,IC50,[7],517 nM
same,IC50,[8],124 nM
same,IC50,[9],1060 nM
same,IC50,[10],6200 nM
same,IC50,[11],381 nM
same,IC50,[12],2150 nM
same,IC50,[13],224 nM
same,IC50,[14],1080 nM
same,IC50,[15],< 62.5 nM
same,IC50,[16],16.3 nM
same,IC50,[17],230 nM
same,IC50,[18],> 16000 nM
same,IC50,[19],110 nM
same,IC50,[20],1010 nM
same,IC50,[21],1930 nM
same,IC50,[22],1460 nM
same,IC50,[23],< 62.5 nM
same,IC50,[24],415 nM
same,IC50,[25],708 nM
same,IC50,[26],> 16000 nM
same,IC50,[27],211 nM
same,IC50,[28],62.5 nM
same,IC50,[29],169 nM
same,IC50,[30],2700 nM
same,IC50,[31],542 nM
same,IC50,[32],2820 nM
same,IC50,[33],16.9 nM
same,IC50,[34],338 nM
same,IC50,[35],73.7 nM
same,IC50,[36],< 62.5 nM
same,IC50,[37],5440 nM
same,IC50,[38],1220 nM
same,IC50,[39],< 62.5 nM
same,IC50,[40],> 16000 nM
same,IC50,[41],2720 nM
same,IC50,[42],377 nM
same,IC50,[43],< 62.5 nM
same,IC50,[44],110 nM
same,IC50,[45],286 nM
same,IC50,[46],276 nM
same,IC50,[47],246 nM
same,IC50,[48],524 nM
same,IC50,[49],< 62.5 nM
same,IC50,[50],430 nM
same,IC50,[51],139 nM
same,IC50,[52],301 nM
same,IC50,[53],43.8 nM
same,IC50,[54],790 nM
same,IC50,[55],212 nM
same,IC50,[56],1740 nM
same,IC50,[57],75.3 nM
same,IC50,[58],295 nM
same,IC50,[59],537 nM
same,IC50,[60],1840 nM
same,IC50,[61],190 nM
same,IC50,[62],> 16000 nM
same,IC50,[63],463 nM
same,IC50,[64],225 nM
same,IC50,[65],72.4 nM
C/C=C(/C)C(=O)O[C@H]1C(C)=C2[C@H]([C@@H]1OC(=O)CCCCCCC)[C@@](C)(OC(C)=O)C[C@H](OC(=O)CCC)[C@@]1(O)[C@H]2OC(=O)[C@@]1(C)O [THAPSIGARGIN],IC50,[1],11.5 nM
same,IC50,[2],11.1 nM
same,IC50,[3],11.7 nM
same,IC50,[4],< 2 nM
same,IC50,[5],> 512 nM
same,IC50,[6],94.1 nM
same,IC50,[7],> 512 nM
same,IC50,[8],10.7 nM
same,IC50,[9],3.15 nM
same,IC50,[10],> 512 nM
same,IC50,[11],< 2 nM
same,IC50,[12],> 512 nM
same,IC50,[13],1.36 nM
same,IC50,[14],> 512 nM
same,IC50,[15],468 nM
same,IC50,[16],4.18 nM
same,IC50,[17],9.79 nM
same,IC50,[18],> 512 nM
same,IC50,[19],23.2 nM
same,IC50,[20],< 2 nM
same,IC50,[21],> 512 nM
same,IC50,[22],1.62 nM
same,IC50,[23],41.3 nM
same,IC50,[24],72.8 nM
same,IC50,[25],53.2 nM
same,IC50,[26],> 512 nM
same,IC50,[27],4.05 nM
same,IC50,[28],< 2 nM
same,IC50,[29],< 2 nM
same,IC50,[30],70 nM
same,IC50,[31],19.9 nM
same,IC50,[32],> 512 nM
same,IC50,[33],< 2 nM
same,IC50,[34],46.9 nM
same,IC50,[35],26.1 nM
same,IC50,[36],6.39 nM
same,IC50,[37],> 512 nM
same,IC50,[38],38.4 nM
same,IC50,[39],8.08 nM
same,IC50,[40],> 512 nM
same,IC50,[41],45.6 nM
same,IC50,[42],> 512 nM
same,IC50,[43],> 512 nM
same,IC50,[44],54.7 nM
same,IC50,[45],17.7 nM
same,IC50,[46],1.66 nM
same,IC50,[47],12.3 nM
same,IC50,[48],0.741 nM
same,IC50,[49],< 2 nM
same,IC50,[50],< 2 nM
same,IC50,[51],< 2 nM
same,IC50,[52],2.12 nM
same,IC50,[53],4.11 nM
same,IC50,[54],7.24 nM
same,IC50,[55],4.51 nM
same,IC50,[56],88.1 nM
same,IC50,[57],2.26 nM
same,IC50,[58],< 2 nM
same,IC50,[59],30.7 nM
same,IC50,[60],> 512 nM
same,IC50,[61],12.5 nM
same,IC50,[62],21.9 nM
same,IC50,[63],13.1 nM
same,IC50,[64],12.5 nM
same,IC50,[65],29.8 nM
